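48-hour exposure; five concentrations; linearly interpolated endpoints. At the GI50, growth is halved. TGI: total growth inhibition.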
Key:
Assay in all cases: inhibition of tumour cell growth, NCI panel, 48 h
MALME-3M melanoma = tested on: MALME-3M melanoma
MDA-MB-435 = tested on: MDA-MB-435
NCI-H226 lung = tested on: NCI-H226 lung
NCI-H460 lung = tested on: NCI-H460 lung
SR leukemia = tested on: SR leukemia
MOLT-4 leukemia = tested on: MOLT-4 leukemia
NCI-H23 lung = tested on: NCI-H23 lung
T-47D breast = tested on: T-47D breast
SNB-75 CNS = tested on: SNB-75 CNS
IGROV1 ovarian = tested on: IGROV1 ovarian
HL-60(TB) leukemia = tested on: HL-60(TB) leukemia
OVCAR-8 ovarian = tested on: OVCAR-8 ovarian
M14 melanoma = tested on: M14 melanoma
A549 NSCLC = tested on: A549 NSCLC
SF-268 CNS = tested on: SF-268 CNS
K-562 leukemia = tested on: K-562 leukemia
A498 renal = tested on: A498 renal
U251 CNS = tested on: U251 CNS
OVCAR-4 ovarian = tested on: OVCAR-4 ovarian
SK-MEL-5 melanoma = tested on: SK-MEL-5 melanoma
COLO 205 colon = tested on: COLO 205 colon
UACC-62 melanoma = tested on: UACC-62 melanoma
SK-OV-3 ovarian = tested on: SK-OV-3 ovarian
SNB-19 CNS = tested on: SNB-19 CNS
SW-620 colon = tested on: SW-620 colon
SF-295 CNS = tested on: SF-295 CNS
KM12 colon = tested on: KM12 colon
HOP-92 NSCLC = tested on: HOP-92 NSCLC
LOX IMVI melanoma = tested on: LOX IMVI melanoma
HCT-116 colon = tested on: HCT-116 colon
MCF7 breast = tested on: MCF7 breast
ACHN renal = tested on: ACHN renal
SK-MEL-28 melanoma = tested on: SK-MEL-28 melanoma
HCC-2998 colon = tested on: HCC-2998 colon
DU-145 prostate = tested on: DU-145 prostate
HCT-15 colon = tested on: HCT-15 colon
PC-3 prostate = tested on: PC-3 prostate
UACC-257 melanoma = tested on: UACC-257 melanoma
CCRF-CEM leukemia = tested on: CCRF-CEM leukemia
RXF 393 renal = tested on: RXF 393 renal
OVCAR-5 ovarian = tested on: OVCAR-5 ovarian
HOP-62 NSCLC = tested on: HOP-62 NSCLC
TK-10 renal = tested on: TK-10 renal
HT29 colon = tested on: HT29 colon
NCI-H522 lung = tested on: NCI-H522 lung
BT-549 breast = tested on: BT-549 breast
NCI/ADR-RES ovarian = tested on: NCI/ADR-RES ovarian
OVCAR-3 ovarian = tested on: OVCAR-3 ovarian
UO-31 renal = tested on: UO-31 renal
SN12C renal = tested on: SN12C renal
SK-MEL-2 melanoma = tested on: SK-MEL-2 melanoma
786-0 renal = tested on: 786-0 renal
SF-539 CNS = tested on: SF-539 CNS
EKVX NSCLC = tested on: EKVX NSCLC
CAKI-1 renal = tested on: CAKI-1 renal
RPMI-8226 leukemia = tested on: RPMI-8226 leukemia
MDA-MB-231 breast = tested on: MDA-MB-231 breast
HS 578T breast = tested on: HS 578T breast

CN1CCN(Cc2ccc(NC(=O)c3cncc(C#Cc4cnc5ccc(Cl)nn45)c3)cc2C(F)(F)F)CC1
GI50 (MALME-3M melanoma): 495 nM
TGI (MALME-3M melanoma): 1230 nM
GI50 (MDA-MB-435): 736 nM
TGI (MDA-MB-435): 2090 nM
GI50 (NCI-H226 lung): 507 nM
TGI (NCI-H226 lung): 2700 nM
GI50 (NCI-H460 lung): 871 nM
TGI (NCI-H460 lung): 2060 nM
GI50 (SR leukemia): 975 nM
TGI (SR leukemia): 6100 nM
GI50 (MOLT-4 leukemia): 682 nM
TGI (MOLT-4 leukemia): 3890 nM
GI50 (NCI-H23 lung): 751 nM
TGI (NCI-H23 lung): 2180 nM
GI50 (T-47D breast): 1410 nM
TGI (T-47D breast): 6580 nM
GI50 (SNB-75 CNS): 972 nM
TGI (SNB-75 CNS): 2100 nM
GI50 (IGROV1 ovarian): 889 nM
TGI (IGROV1 ovarian): 3540 nM
GI50 (HL-60(TB) leukemia): 318 nM
TGI (HL-60(TB) leukemia): 1470 nM
GI50 (OVCAR-8 ovarian): 1460 nM
TGI (OVCAR-8 ovarian): 5270 nM
GI50 (M14 melanoma): 590 nM
TGI (M14 melanoma): 1340 nM
GI50 (A549 NSCLC): 1280 nM
TGI (A549 NSCLC): 4290 nM
GI50 (SF-268 CNS): 1250 nM
TGI (SF-268 CNS): 2830 nM
GI50 (K-562 leukemia): 5 nM
TGI (K-562 leukemia): 2960 nM
GI50 (A498 renal): 1120 nM
TGI (A498 renal): 2600 nM
GI50 (U251 CNS): 1220 nM
TGI (U251 CNS): 4340 nM
GI50 (OVCAR-4 ovarian): 453 nM
TGI (OVCAR-4 ovarian): 3660 nM
GI50 (SK-MEL-5 melanoma): 849 nM
TGI (SK-MEL-5 melanoma): 1590 nM
GI50 (COLO 205 colon): 688 nM
TGI (COLO 205 colon): 2080 nM
GI50 (UACC-62 melanoma): 925 nM
TGI (UACC-62 melanoma): 2400 nM
GI50 (SK-OV-3 ovarian): 1750 nM
TGI (SK-OV-3 ovarian): 4960 nM
GI50 (SNB-19 CNS): 1780 nM
TGI (SNB-19 CNS): 4890 nM
GI50 (SW-620 colon): 631 nM
TGI (SW-620 colon): 3660 nM
GI50 (SF-295 CNS): 1380 nM
TGI (SF-295 CNS): 5320 nM
GI50 (KM12 colon): 5 nM
TGI (KM12 colon): 2130 nM
GI50 (HOP-92 NSCLC): 454 nM
TGI (HOP-92 NSCLC): 3630 nM
GI50 (LOX IMVI melanoma): 757 nM
TGI (LOX IMVI melanoma): 1600 nM
GI50 (HCT-116 colon): 259 nM
TGI (HCT-116 colon): 1340 nM
GI50 (MCF7 breast): 287 nM
TGI (MCF7 breast): 1920 nM
GI50 (ACHN renal): 769 nM
TGI (ACHN renal): 2940 nM
GI50 (SK-MEL-28 melanoma): 918 nM
TGI (SK-MEL-28 melanoma): 2590 nM
GI50 (HCC-2998 colon): 949 nM
TGI (HCC-2998 colon): 2660 nM
GI50 (DU-145 prostate): 1180 nM
TGI (DU-145 prostate): 4380 nM
GI50 (HCT-15 colon): 901 nM
TGI (HCT-15 colon): 3360 nM
GI50 (PC-3 prostate): 1200 nM
TGI (PC-3 prostate): 5240 nM
GI50 (UACC-257 melanoma): 1210 nM
TGI (UACC-257 melanoma): 4130 nM
GI50 (CCRF-CEM leukemia): 1290 nM
TGI (CCRF-CEM leukemia): 4840 nM
GI50 (RXF 393 renal): 828 nM
TGI (RXF 393 renal): 1770 nM
GI50 (OVCAR-5 ovarian): 830 nM
TGI (OVCAR-5 ovarian): 3550 nM
GI50 (HOP-62 NSCLC): 1270 nM
TGI (HOP-62 NSCLC): 3730 nM
GI50 (TK-10 renal): 1640 nM
TGI (TK-10 renal): 4460 nM
GI50 (HT29 colon): 747 nM
TGI (HT29 colon): 5710 nM
GI50 (NCI-H522 lung): 878 nM
TGI (NCI-H522 lung): 2780 nM
GI50 (BT-549 breast): 1450 nM
TGI (BT-549 breast): 3850 nM
GI50 (NCI/ADR-RES ovarian): 1590 nM
TGI (NCI/ADR-RES ovarian): 5240 nM
GI50 (OVCAR-3 ovarian): 1580 nM
TGI (OVCAR-3 ovarian): 4000 nM
GI50 (UO-31 renal): 1280 nM
TGI (UO-31 renal): 3360 nM
GI50 (SN12C renal): 969 nM
TGI (SN12C renal): 3480 nM
GI50 (SK-MEL-2 melanoma): 744 nM
TGI (SK-MEL-2 melanoma): 1980 nM
GI50 (786-0 renal): 1010 nM
TGI (786-0 renal): 1850 nM
GI50 (SF-539 CNS): 540 nM
TGI (SF-539 CNS): 1210 nM
GI50 (EKVX NSCLC): 910 nM
TGI (EKVX NSCLC): 2340 nM
GI50 (CAKI-1 renal): 1000 nM
TGI (CAKI-1 renal): 4630 nM
GI50 (RPMI-8226 leukemia): 954 nM
TGI (RPMI-8226 leukemia): 2690 nM
GI50 (MDA-MB-231 breast): 567 nM
TGI (MDA-MB-231 breast): 2300 nM
GI50 (HS 578T breast): 886 nM
TGI (HS 578T breast): 3290 nM
